The test system of this experiment is HBsAg. Nature of the experiment: HepG2.2.15 cells primary screen assay: HBsAg assay (CLIA of secreted HBsAg). Format: cell-based, HBV. Particulars: Hepatitis B virus. As to the method: Example 23: HepG2.2.15 Cells Primary Screen Assay
HepG2.2.15 cells (Acs et al. Proc Natl Acad Sci USA, 84, (1987), 4641-4), a constitutively HBV-expressing cell line were cultured in DMEM+Glutamax-I medium (Invitrogen, Carlsbad, Calif., USA), supplemented with 10% fetal bovine serum (Invitrogen) and G418 (Invitrogen) at a final concentration of 200 mg/L and maintained in 5% CO2 at 37° C.
HepG2.2.15 cells were seeded in duplicate into white, 96-well plates at 1.5×10^4 cells/well. The cells were treated with a three-fold serial dilution series of the compounds in DMSO. The final DMSO concentration in all wells was 1% and DMSO was used as no drug control.
The HBsAg chemiluminescence immunoassay (CLIA) kit (Autobio Diagnostics Co., Zhengzhou, China, Catalog number: CL0310-2) was used to measure the levels of secreted HBV antigens semi-quantitatively. For the detection 50 μL/well culture supernatant was used and HBsAg was quantified using HBsAg chemiluminescence immunoassay (CLIA) kit (Autobio Diagnostics Co., Zhengzhou, China, Catalog number: CL0310-2), 50 μL of the supernatant was transferred to the CLIA assay plate and 50 μL of enzyme conjugate reagent was added into each well. The plates were sealed and gently agitated for 1 hour at room temperature. The supernatant-enzyme-mixture was discarded and wells were washed 6 times with 300 μL of PBS. The residual liquid was removed by plating the CLIA plate […] on absorbent tissue paper. 25 μL of substrates A and B were added to each well. Luminance was measured using a luminometer (Mithras LB 940 Multimode Microplate Reader) after 10 minutes incubation. Dose-response curves were generated and the IC50 value was extrapolated by using the E-WorkBook Suite (ID Business Solutions Ltd., Guildford, UK). The IC50 was defined as the compound concentration (or conditioned media log dilution) at which HBsAg secretion was reduced by 50% compared to the no drug control.
The compounds of the present invention were tested for their capacity to inhibit HBsAg as described herein.

We go through 7 compounds from US11447489B2, “Dihydropyrimidinylthiazole for the treatment and prophylaxis of hepatitis B virus infection” (priority 2017, dated 2022).

SMILES strings stand for the structures.

With `CCOC(=O)C1=C(COCCCCCCOc2cc3c(cc2OC)-c2cc(=O)c(C(=O)O)cn2C(C(C)(C)C)C3)NC(c2nccs2)=NC1c1ccc(F)cc1Cl` (stereo not shown) [Example 14, 6-tert-butyl-9-[6-[[4-(2-chloro-4-fluoro-phenyl)-5-ethoxycarbonyl-2-thiazol-2-yl-1,4-dihydropyrimidin-6-yl]methoxy]hexoxy]-10-methoxy-2-oxo-6,7-dihydrobenzo[a]quinolizine-3-carboxylic Acid], the IC50 came to 96 nM.

`COC(=O)C1=C(CN2CCN(c3cc(F)cc(N4CCc5nc(-c6ncccn6)ncc5C4C)n3)C(C(=O)O)C2)NC(c2nccs2)=N[C@H]1c1ccc(F)cc1Cl` (stereo partly drawn) [Example 22, 4-[[(4R)-4-(2-chloro-4-fluoro-phenyl)-5-methoxycarbonyl-2-thiazol-2-yl-1,4-dihydropyrimidin-6-yl]methyl]-1-[4-fluoro-6-[5-methyl-2-pyrimidin-2-yl-7,8-dihydro-5H-pyrido[4,3-d]pyrimidin-6-yl]-2-pyridyl]piperazine-2-carboxylic Acid] registered a half-maximal inhibitory concentration (IC50) of 618 nM.

`COC(=O)C1=C(COc2cc(N3CCc4nc(-c5ncccn5)ncc4C3C)cc(F)c2F)NC(c2nccs2)=N[C@H]1c1ccc(F)cc1Cl` (stereo partly drawn) [Example 20, methyl (4R)-4-(2-chloro-4-fluoro-phenyl)-6-[[2,3-difluoro-5-(5-methyl-2-pyrimidin-2-yl-7,8-dihydro-5H-pyrido[4,3-d]pyrimidin-6-yl)phenoxy]methyl]-2-thiazol-2-yl-1,4-dihydropyrimidine-5-carboxylate] displayed an IC50 of 824 nM.

Turning to `COC(=O)C1=C(CN2CCOC[C@H]2C(=O)NCCOCCOCCOc2cc3c(cc2OC)-c2cc(=O)c(C(=O)O)cn2C(C(C)(C)C)C3)NC(c2nccs2)=N[C@H]1c1ccc(F)cc1Cl` (stereo partly drawn) [Example 10, 6-tert-butyl-9-[2-[2-[2-[[(3S)-4-[[(4R)-4-(2-chloro-4-fluoro-phenyl)-5-methoxycarbonyl-2-thiazol-2-yl-1,4-dihydropyrimidin-6-yl]methyl]morpholine-3-carbonyl]amino]ethoxy]ethoxy]ethoxy]-10-methoxy-2-oxo-6,7-dihydrobenzo[a]quinolizine-3-carboxylic Acid], 569 nM corresponded to half-maximal inhibition (IC50).

For the compound `COC(=O)C1=C(CN2CCN(CCCCOc3cc4c(cc3OC)-c3cc(=O)c(C(=O)O)cn3C(C(C)(C)C)C4)CC2)NC(c2nccs2)=N[C@H]1c1ccc(F)cc1Cl` (stereo partly drawn) [Example 3, 6-tert-butyl-9-[4-[4-[[(4R)-4-(2-chloro-4-fluoro-phenyl)-5-methoxycarbonyl-2-thiazol-2-yl-1,4-dihydropyrimidin-6-yl]methyl]piperazin-1-yl]butoxy]-10-methoxy-2-oxo-6,7-dihydrobenzo[a]quinolizine-3-carboxylic Acid], the IC50 was 45 nM.

In the case of `CCOC(=O)C1=C(CN2CCN3C(=O)N(CC(C)(C)C(=O)NCCCCCCOc4cc5c(cc4OC)-c4cc(=O)c(C(=O)O)cn4C(C(C)(C)C)C5)C[C@@H]3C2)NC(c2nccs2)=N[C@H]1c1cccc(F)c1Cl` (stereo partly drawn) [Example 15, 9-[6-[[3-[(8aS)-7-[[(4R)-4-(2-chloro-3-fluoro-phenyl)-5-ethoxycarbonyl-2-thiazol-2-yl-1,4-dihydropyrimidin-6-yl]methyl]-3-oxo-5,6,8,8a-tetrahydro-1H-imidazo[1,5-a]pyrazin-2-yl]-2,2-dimethyl-propanoyl]amino]hexoxy]-6-tert-butyl-10-methoxy-2-oxo-6,7-dihydrobenzo[a]quinolizine-3-carboxylic Acid], inhibition was half-maximal at 41 nM (IC50).

`COC(=O)C1=C(CN2CCN(CCCCCCOc3cc4c(cc3OC)-c3cc(=O)c(C(=O)O)cn3C(C(C)(C)C)C4)CC2)NC(c2nccs2)=N[C@H]1c1ccc(F)cc1Cl` (stereo partly drawn) [Example 1, 6-tert-butyl-9-[6-[4-[[(4R)-4-(2-chloro-4-fluoro-phenyl)-5-methoxycarbonyl-2-thiazol-2-yl-1,4-dihydropyrimidin-6-yl]methyl]piperazin-1-yl]hexoxy]-10-methoxy-2-oxo-6,7-dihydrobenzo[a]quinolizine-3-carboxylic Acid] yielded an IC50 of 41 nM.

As usually defined, the IC50 is the concentration that gives 50% inhibition. Read a low IC50 as greater potency in that assay.
